# Reference: patent US12331042B2, “Compounds suitable for the treatment and prophylaxis of muscle wasting and other conditions” (priority 2019, dated 2025)
# Entries after “also recorded” stand apart in the source; their conditions may differ.
# Tests used:
# [1] = system: MuRF1 central fragment; test: Differential scanning fluorimetry (DSF) of MuRF1 central fragment; assay type: binding; details: 100 μM compound, 1% DMSO in PBS, 75 μM protein; 65.8° C. with 1% DMSO alone
# Description: The effect of compound MyoMed-946 on MuRF1 protein stability was determined in vitro by differential scanning fluorimetry (DSF).
# “MuRF1 central fragment” was expressed as previously described (Mrosek M et al., FASEB J, 2007, 21, 1383-1392) and used in DSF experiments at 75 μM final concentration. Compound MyoMed-946 was diluted from a 10 mM stock in DMSO to 100 μM in PBS as DSF assay buffer, resulting in a final concentration of 1% DMSO. After 1 hour pre-incubation at room temperature, the aqueous protein solutions were soaked into capillaries and placed into a Prometheus NT.48 nanoDSF device (NanoTemper Technologies, Munich, Germany). Changes in the intrinsic tryptophan or tyrosine fluorescence that occurred after LED laser excitement upon protein unfolding in a thermal gradient was detected at 330 nm and 350 nm, respectively. […] The first derivative of the fluorescence wavelength ratio of 350/330 nm upon thermal protein unfolding was used to calculate transition midpoint (Tm) of single and multiple transition states.
# [2] = system: C57BL/6N mice inoculated with B16F10 melanoma cells; test: Tumor mouse model (B16F10 melanoma); assay type: in vivo; details: 0.1 weight-% in chow, vs tumor mice
# Source text: 8 weeks old female C57BL/6N mice were inoculated with B16F10 melanoma cells (9×10^5 cells) or saline (sham, n=10). Within the first 3 days after tumor inoculation, the B16F10 mice as well as the sham mice received regular chow. Then the B16F10 mice were randomly divided in three groups, where the first group received MyoMed-946 chow (Tumor+MyoMed-946, n=10), the second group received MyoMed-205 chow (Tumor+MyoMed-205, n=10) and the third group received an identical chow but without the addition of the selected compounds (Tumor, n=10). The compound concentration in the chow was 0.1 weight-%, resulting in a daily compound intake per mouse of about 3 mg. Also the sham group was fed with an identical chow but without the addition of the selected compound. Wire-hang tests (muscle function) were performed with each mouse 9, 16 and 23 days after tumor inoculation. For this purpose, a standard wire hang construction was used with a wire (length: of 40 cm, diameter: 2.5 mm) at a height of 70 cm above the floor. Under the center of the wire a large box with sawdust was placed. For testing, the mouse was hung to the wire with the two limbs and hang time was recorded. Each animal had three attempts for 180 sec. max each. After three attempts, the maximal holding impulse was calculated (hanging time×body weight).
# Mice were sacrificed 25 days after tumor inoculation. […]
# [3] = system: citrate synthase, succinate dehydrogenase, mitochondrial complex I, cytoplasmic enzymes; test: Enzyme activity measurements in diaphragm tissue, CHF mice; assay type: in vivo; details: CHF+compound
# Description: Diaphragmatic tissue was homogenized in relaxing buffer, and aliquots were used for enzyme activity measurements. Enzyme activities for lactate dehydrogenase (EC 1.1.1.27), pyruvate kinase (EC 2.7.1.40), succinate dehydrogenase (SDH, EC 1.3.5.1), citrate synthase (CS, EC 2.3.3.1), β-hydroxyacyl-COA dehydrogenase (EC 1.1.1.35), and mitochondrial complex I were measured spectrophotometrically as previously described in detail (Mukherjee et al., J Biol Chem, 1976, 251, 2155-2160; Vanderlinde et al., Ann Clin Lab Sci, 1985, 15, 13-31; Dzeja et al., Mol Cell Biochem, 1999, 201, 33-40; Takashi et al., Biochim Biohphys Acta, 1979, 574, 258-267; Schwarzer et al., J Physiol, 2014, 592, 3767-3782). Enzyme activity data are presented as the fold change relative to sham.
# [4] = system: MuRF1 mRNA in C2C12 myotubes; test: MuRF1 mRNA in C2C12 myotubes treated with dexamethasone (RT-PCR); assay type: cell-based, Murine; details: pre-treatment at 0.1 μmol/L and 10 μmol/L, then 24 h dexamethasone 10 μmol/L
# Description: Murine C2C12 myoblasts (CRL-1772, ATCC) were cultured in DMEM (Lonza; Basel, Switzerland) supplemented with 10% fetal calf serum (FCS; Gibco®Invitrogen, Carlsbad, CA). For induction of differentiation into myotubes, subconfluent cultures were switched to DMEM containing 2% horse serum (Sigma-Aldrich; Seelze, Germany). Myotubes were subsequently pre-treated for 2 h with increasing compound concentrations (0.1 to 10 μmol/L, dissolved in DMSO) or with an equal volume of DMSO before treatment for 24 h with 10 μmol/L dexamethasone (DEX; Sigma-Aldrich; Seelze, Germany). Myotube diameter was then evaluated by image analysis software (Analysis 3.0, Olympus Soft Imaging Solutions GmbH, Munster, Germany). To determine cytotoxicity of selected compounds, myoblasts or myotubes were incubated with increasing concentrations for 24 h. Subsequently, the concentration of lactate dehydrogenase (LDH) activity was quantified in the cell culture supernatant as a measure for cell destruction as described in Bellocci et al., Anal Biochem, 2008, 374, 48-55.
# After the incubation period, Total RNA was isolated from C2C12 cells and reverse transcribed into cDNA using random hexamers and Sensiscript reverse transcriptase (Qiagen, Hilden, Germany). An aliquot of the cDNA was used for quantitative RT-PCR, applying the Light Cycler system (Roche Diagnostics, Mannheim, Germany). […]
smiles,measurement,setting,value
"Cc1cc(=O)oc2cc(OCc3ccc(C(=O)OCC(=O)NC(=O)NCc4ccco4)cc3)ccc12 [MyoMed-946, [2-(2-furylmethylcarbamoylamino)-2-oxo-ethyl] 4-[(4-methyl-2-oxo-chromen-7-yl)oxymethyl]benzoate]",main Tm of MuRF1 central fragment,[1],52.5 °C
same,tumor induced skeletal muscle atrophy (TA muscle weight),"[2]; 25 days after inoculation, at least to certain extent",attenuated
same,loss of muscle function in wire-hang test,"[2]; 9, 16 and 23 days after inoculation",attenuated; also recorded: significantly attenuates the loss of muscle function
same,citrate synthase enzyme activity,[3]; reduced by 21% in CHF vs sham,attenuated; also recorded: partially improved
same,mitochondrial complex I enzyme activity,[3]; reduced by 27% in CHF vs sham,attenuated; also recorded: partially improved
same,succinate dehydrogenase enzyme activity,[3]; reduced by 28% in CHF vs sham,attenuated; also recorded: partially improved
same,expression of MuRF1 at the mRNA level,[4],reduced MuRF1 mRNA levels; also recorded: prevented
